Results taken from paper PMC4245125, “Pharmacological and Behavioral Characterization of D-473, an Orally Active Triple Reuptake Inhibitor Targeting Dopamine, Serotonin and Norepinephrine Transporters” (PLoS ONE, 2014).
Several values for one entry are separate records, joined by “and”; a condition that tells them apart may be missing. Equal entries are not always repeated.

How the values were obtained:
5HT1b = molecular target: T1, 5HT1b (Homo sapiens, UniProt P28222); experiment: NIMH PDSP receptor binding, 5HT1b; conditions: [3H]GR-125743, read-out: % Inhibition of Binding at 10 µM D-473
T1 construct: purchased NIMH PDSP

5HT1e = molecular target: T2, 5HT1e (Homo sapiens, UniProt P28566); experiment: NIMH PDSP receptor binding, 5HT1e; conditions: [3H]5-HT, read-out: % Inhibition of Binding at 10 µM D-473
T2 construct: purchased NIMH PDSP

5HT6 = molecular target: T3, 5HT6 (Homo sapiens, UniProt P50406); experiment: NIMH PDSP receptor binding, 5HT6; conditions: [3H]LSD, read-out: % Inhibition of Binding at 10 µM D-473
T3 construct: purchased NIMH PDSP

Alpha2A = molecular target: T4, Alpha2A (Homo sapiens, UniProt P08913); experiment: NIMH PDSP receptor binding, Alpha2A; conditions: [3H]Clonidine, read-out: % Inhibition of Binding at 10 µM D-473
T4 construct: purchased NIMH PDSP

Alpha2C = Alpha2C (Homo sapiens, UniProt P18825); experiment: NIMH PDSP receptor binding, Alpha2C; conditions: [3H]Clonidine
H3 = molecular target: T5, H3 (Homo sapiens, UniProt Q9Y5N1); experiment: NIMH PDSP receptor binding, H3; conditions: [3H]Alpha-methyl Histamine, read-out: % Inhibition of Binding at 10 µM D-473
T5 construct: purchased NIMH PDSP

µ-Opioid = molecular target: T6, µ-Opioid (Homo sapiens, UniProt P35372); experiment: NIMH PDSP receptor binding, µ-Opioid; conditions: [3H]Diprenorphine, read-out: % Inhibition of Binding at 10 µM D-473
T6 construct: purchased NIMH PDSP

M1 = molecular target: T7, M1 (Homo sapiens, UniProt P11229); experiment: biochemical; conditions: read-out: % Inhibition of Binding at 10 µM D-473
T7 construct: purchased NIMH PDSP

M2 = molecular target: T8, M2 (Homo sapiens, UniProt P08172); experiment: biochemical; conditions: read-out: % Inhibition of Binding at 10 µM D-473
T8 construct: purchased NIMH PDSP

[1] = system: extracellular DA, 5-HT, NE and metabolites in the medial prefrontal cortex (mPFC); experiment: Microdialysis in medial prefrontal cortex, monoamines and metabolites; assay type: in vivo, rat; conditions: 10 mg/kg i.p.
Experimental: (§1) Adult male Sprague-Dawley rats (Harlan, Indianapolis, IN) weighing between 250 and 350 g were used for all experiments. Rats were housed in a temperature and humidity controlled room with 12 hr light/dark cycles with food and water available ad libitum. Adequate measures were taken to prevent animal pain and discomfort. All animals were treated as approved by the University of Michigan Unit for Laboratory Animal Medicine (ULAM) and in accordance with the National Institute of Health (NIH) Guidelines for the Care and Use of Laboratory Animals.
(§2) Rats were anesthetized with using an isoflurane vaporizer that was interfaced to a model 963 Ultra Precise stereotaxic instrument with 0.1 mm resolution (David Kopf Instruments, Tujunga, CA). Concentrically designed microdialysis probes (1 mm dialyzing length) were built in house then implanted bilaterally into the dorsal lateral striatum (DLS) and the medial prefrontal cortex (mPFC) according to the following coordinates from bregma and dura (in mm): AP +1, ML +3.3, DV –5.7 and AP +3, ML −0.5, DV −5, respectively (Paxinos and Watson, 2007). […] 1 mm probes were selected for higher spatial resolution and lower tissue damage compared to larger probes. Probes were secured to the skull by acrylic dental cement and metallic screws. Following surgery, rats were allowed to recover and experiments were run 24 hr after probe implantation. Microdialysis probes were flushed at a flow rate of 2 µl/min with aCSF (composition in mM: CaCl2 1.2; KCl 2.7, NaCl 148 and MgCl2 0.85) for 2 hr using a Chemyx Fusion 400 syringe pump (Chemyx, Stafford, TX). Perfusion flow rate was then reduced to 1 µl/min and samples were collected every 10 min. Baseline values were collected for 50 min and then the drug D-473 was injected (10 mg/kg, i.p.) and samples were collected for an additional 2 h. When experiments were completed, animals were euthanized and then brains were extracted and frozen at −80°C until histology.
(§3) Dopamine, norepinephrine (NE), serotonin (5HT), DOPAC, homovanillic acid (HVA) and 5-hydroxyindole acetic acid (5-HIAA) were analyzed using a benozyolation derivitization LC-MS method recently described by our laboratory. Briefly, 10 µl dialysate samples were derivatized by adding 5 µl of 100 mM sodium tetraborate, 5 µl of 2% benzoyl chloride in acetonitrile, and then 5 µl of a stable ^13C benzoylated isotope internal standard mixture was then added to improve quantitation. A Thermo Fisher Accela UHPLC (Waltham, MA) system automatically injected 5 µl of the sample onto a Waters (Milford, MA) HSS T3 reverse phase HPLC column (1 mm X 100 mm, 1.8 µm). Mobile phase A consisted of 10 mM ammonium formate and 0.15% formic acid. Mobile phase B was pure acetonitrile. Analytes were detected by an Thermo Fisher TSQ Quantum Ultra triple quadrupole mass spectrometer operating in multiple reaction monitoring (MRM) mode. The assay limits of detection were (nM in dialysate) for DA, 0.3; NE, 0.2; 5HT, 0.1; HVA, 0.5; DOPAC, 2; and 5HIAA, 5. […] Average standard deviation in above basal levels was 18%.
(§4) All neurochemical data were transformed into percent baseline with baseline values all averaging 100%. Statistical analysis was performed by t-test analysis of every point relative to baseline values (i.e. 100%) using Prism 6 (Graphpad Software Inc, La Jolla, CA). P values <0.05 were considered to be statistically significant.

[2] = system: extracellular DA, 5-HT, NE and metabolites in the dorsal lateral striatum (DLS); experiment: Microdialysis in dorsal lateral striatum, monoamines and metabolites; assay type: in vivo, rat; conditions: 10 mg/kg i.p.
Experimental: as §1, §2, §3, §4

hNET = hNET (Homo sapiens, UniProt P23975); experiment: Inhibition of [3H]DA uptake by cloned human NET in HEK293 cells
hSERT = hSERT (Homo sapiens, UniProt P31645); experiment: Inhibition of [3H]5-HT uptake by cloned human SERT in HEK293 cells
hSERT, sequence (P31645 whole entry): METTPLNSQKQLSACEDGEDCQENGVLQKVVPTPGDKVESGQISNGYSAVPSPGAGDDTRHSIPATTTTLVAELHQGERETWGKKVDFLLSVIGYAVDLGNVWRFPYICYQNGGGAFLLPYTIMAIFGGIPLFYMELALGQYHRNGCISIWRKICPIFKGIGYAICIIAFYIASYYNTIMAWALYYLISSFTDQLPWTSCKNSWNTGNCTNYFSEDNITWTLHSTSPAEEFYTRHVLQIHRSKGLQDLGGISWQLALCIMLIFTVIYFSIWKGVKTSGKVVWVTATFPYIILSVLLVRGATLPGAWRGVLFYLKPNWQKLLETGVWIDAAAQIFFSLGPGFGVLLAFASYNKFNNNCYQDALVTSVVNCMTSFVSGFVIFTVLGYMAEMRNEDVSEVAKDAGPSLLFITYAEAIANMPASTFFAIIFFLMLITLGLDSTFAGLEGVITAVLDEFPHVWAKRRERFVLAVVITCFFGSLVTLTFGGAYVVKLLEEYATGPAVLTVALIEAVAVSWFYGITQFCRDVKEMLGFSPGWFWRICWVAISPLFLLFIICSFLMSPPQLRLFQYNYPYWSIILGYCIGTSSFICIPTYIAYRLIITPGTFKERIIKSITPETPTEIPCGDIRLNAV

hNET, sequence (P23975 whole entry): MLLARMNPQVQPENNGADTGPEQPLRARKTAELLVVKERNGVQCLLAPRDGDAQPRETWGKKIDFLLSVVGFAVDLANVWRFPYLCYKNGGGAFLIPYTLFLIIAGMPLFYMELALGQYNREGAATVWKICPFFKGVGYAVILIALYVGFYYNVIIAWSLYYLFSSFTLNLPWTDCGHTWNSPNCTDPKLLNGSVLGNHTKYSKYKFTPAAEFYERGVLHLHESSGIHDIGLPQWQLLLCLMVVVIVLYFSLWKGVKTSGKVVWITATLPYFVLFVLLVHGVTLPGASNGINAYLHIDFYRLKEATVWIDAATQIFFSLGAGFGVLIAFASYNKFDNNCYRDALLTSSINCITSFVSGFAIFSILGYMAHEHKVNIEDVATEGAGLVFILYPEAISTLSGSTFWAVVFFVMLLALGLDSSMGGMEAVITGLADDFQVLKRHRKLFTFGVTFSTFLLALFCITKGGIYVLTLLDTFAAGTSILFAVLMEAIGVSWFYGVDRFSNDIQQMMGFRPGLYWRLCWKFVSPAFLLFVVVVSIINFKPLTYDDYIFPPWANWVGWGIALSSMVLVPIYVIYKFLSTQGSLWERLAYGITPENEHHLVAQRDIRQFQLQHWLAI
Alpha2C, sequence (P18825 whole entry): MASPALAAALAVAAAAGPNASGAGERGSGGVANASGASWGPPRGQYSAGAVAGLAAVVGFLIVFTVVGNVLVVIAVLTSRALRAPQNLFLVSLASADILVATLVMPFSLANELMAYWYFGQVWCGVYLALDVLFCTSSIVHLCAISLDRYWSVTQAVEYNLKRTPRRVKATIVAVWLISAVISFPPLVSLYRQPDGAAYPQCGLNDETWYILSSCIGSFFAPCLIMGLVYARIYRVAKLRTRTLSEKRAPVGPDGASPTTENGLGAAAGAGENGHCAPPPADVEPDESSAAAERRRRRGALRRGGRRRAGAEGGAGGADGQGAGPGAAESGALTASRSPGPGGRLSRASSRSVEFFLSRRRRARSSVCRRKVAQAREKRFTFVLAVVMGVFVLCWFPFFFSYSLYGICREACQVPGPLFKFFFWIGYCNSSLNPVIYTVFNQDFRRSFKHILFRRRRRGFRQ
T5 sequence (Q9Y5N1 whole entry): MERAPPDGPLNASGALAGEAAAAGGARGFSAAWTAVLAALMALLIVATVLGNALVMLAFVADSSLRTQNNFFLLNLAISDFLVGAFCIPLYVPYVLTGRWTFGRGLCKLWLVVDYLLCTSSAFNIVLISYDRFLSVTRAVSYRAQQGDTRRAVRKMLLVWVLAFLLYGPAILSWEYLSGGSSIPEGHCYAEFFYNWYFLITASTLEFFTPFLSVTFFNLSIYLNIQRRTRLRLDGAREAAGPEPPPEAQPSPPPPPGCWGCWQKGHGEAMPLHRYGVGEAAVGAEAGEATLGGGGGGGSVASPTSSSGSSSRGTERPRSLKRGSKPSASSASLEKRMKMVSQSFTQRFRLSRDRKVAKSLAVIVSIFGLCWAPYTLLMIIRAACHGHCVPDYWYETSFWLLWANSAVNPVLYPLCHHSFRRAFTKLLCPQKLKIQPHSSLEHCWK
T6 sequence (P35372 whole entry): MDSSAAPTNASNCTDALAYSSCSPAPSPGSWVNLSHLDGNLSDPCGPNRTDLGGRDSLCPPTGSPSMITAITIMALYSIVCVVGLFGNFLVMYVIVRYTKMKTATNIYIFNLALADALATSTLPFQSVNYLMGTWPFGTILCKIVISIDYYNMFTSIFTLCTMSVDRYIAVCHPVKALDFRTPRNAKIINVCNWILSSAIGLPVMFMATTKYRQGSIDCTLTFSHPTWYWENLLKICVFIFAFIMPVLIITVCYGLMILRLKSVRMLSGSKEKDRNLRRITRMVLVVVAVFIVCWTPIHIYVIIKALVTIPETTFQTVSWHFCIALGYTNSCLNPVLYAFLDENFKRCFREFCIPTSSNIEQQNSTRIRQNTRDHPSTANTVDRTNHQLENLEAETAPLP
T1 sequence (P28222 whole entry): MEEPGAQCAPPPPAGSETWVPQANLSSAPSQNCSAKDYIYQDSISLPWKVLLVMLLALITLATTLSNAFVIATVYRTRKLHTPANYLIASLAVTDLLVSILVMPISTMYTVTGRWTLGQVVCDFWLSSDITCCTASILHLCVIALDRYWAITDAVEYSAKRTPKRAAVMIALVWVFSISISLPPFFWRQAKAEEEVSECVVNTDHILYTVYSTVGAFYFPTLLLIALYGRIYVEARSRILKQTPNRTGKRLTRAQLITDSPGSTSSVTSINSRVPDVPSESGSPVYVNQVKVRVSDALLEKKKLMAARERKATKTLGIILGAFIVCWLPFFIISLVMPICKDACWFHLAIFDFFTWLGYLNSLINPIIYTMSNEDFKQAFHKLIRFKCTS
T2 sequence (P28566 whole entry): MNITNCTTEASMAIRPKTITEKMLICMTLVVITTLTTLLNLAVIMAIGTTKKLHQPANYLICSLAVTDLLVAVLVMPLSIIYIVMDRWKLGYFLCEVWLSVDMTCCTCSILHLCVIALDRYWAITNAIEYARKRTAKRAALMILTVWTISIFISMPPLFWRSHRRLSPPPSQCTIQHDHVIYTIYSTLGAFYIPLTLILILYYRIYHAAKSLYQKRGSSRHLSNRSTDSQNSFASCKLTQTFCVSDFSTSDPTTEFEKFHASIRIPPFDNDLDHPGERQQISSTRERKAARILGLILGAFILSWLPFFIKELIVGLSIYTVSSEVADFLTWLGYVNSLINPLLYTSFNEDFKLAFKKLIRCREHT
T7 sequence (P11229 whole entry): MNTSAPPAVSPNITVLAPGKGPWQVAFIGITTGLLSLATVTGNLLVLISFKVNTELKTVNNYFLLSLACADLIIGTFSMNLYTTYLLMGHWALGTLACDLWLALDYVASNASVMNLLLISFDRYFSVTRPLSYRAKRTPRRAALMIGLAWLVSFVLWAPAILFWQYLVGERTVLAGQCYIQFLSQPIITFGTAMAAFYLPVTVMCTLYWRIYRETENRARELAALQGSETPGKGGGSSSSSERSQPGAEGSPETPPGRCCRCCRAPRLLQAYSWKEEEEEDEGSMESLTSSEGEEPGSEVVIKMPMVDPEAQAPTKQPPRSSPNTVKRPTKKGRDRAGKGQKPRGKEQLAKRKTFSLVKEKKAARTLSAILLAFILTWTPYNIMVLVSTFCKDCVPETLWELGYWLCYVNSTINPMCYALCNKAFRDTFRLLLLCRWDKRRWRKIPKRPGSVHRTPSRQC
T8 sequence (P08172 whole entry): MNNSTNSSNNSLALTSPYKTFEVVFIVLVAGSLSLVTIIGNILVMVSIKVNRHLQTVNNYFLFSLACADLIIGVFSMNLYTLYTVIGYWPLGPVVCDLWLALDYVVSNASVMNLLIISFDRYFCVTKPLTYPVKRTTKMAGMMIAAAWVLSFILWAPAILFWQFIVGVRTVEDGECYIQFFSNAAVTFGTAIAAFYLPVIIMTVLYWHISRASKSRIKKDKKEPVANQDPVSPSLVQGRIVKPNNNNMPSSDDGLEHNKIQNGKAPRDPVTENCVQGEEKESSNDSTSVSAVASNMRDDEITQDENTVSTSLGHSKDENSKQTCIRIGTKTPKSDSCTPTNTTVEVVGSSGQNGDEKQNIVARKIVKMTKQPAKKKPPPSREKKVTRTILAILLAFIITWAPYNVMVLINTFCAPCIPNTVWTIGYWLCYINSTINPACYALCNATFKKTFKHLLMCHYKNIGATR
T3 sequence (P50406 whole entry): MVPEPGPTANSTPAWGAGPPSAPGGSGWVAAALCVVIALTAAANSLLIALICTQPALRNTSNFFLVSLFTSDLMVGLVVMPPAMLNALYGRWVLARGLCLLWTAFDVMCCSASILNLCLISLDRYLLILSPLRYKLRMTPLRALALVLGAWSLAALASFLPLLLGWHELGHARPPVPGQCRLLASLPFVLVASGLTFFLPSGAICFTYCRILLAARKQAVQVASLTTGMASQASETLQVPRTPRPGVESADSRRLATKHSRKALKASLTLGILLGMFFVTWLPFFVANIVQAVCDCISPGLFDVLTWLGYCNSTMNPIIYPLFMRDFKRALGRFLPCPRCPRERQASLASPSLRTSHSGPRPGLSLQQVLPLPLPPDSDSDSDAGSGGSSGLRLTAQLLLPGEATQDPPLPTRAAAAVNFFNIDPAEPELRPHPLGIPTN

With `COc1ccc(CN[C@@H]2CO[C@H](C(c3ccc(F)cc3)c3ccc(F)cc3)C[C@H]2O)cc1` [Compound D-473, (2S,4R,5R)-2-(bis(4-fluorophenyl)methyl)-5-((4-methoxybenzyl)amino)tetrahydro-2H-pyran-4-ol] the inhibition at 10 µM (5HT1b) was 14.2%, the inhibition at 10 µM (5HT1e) was 38% and the inhibition at 10 µM (5HT6) was -11.4%. The inhibition at 10 µM (Alpha2A) was 14.5%, the inhibition at 10 µM (Alpha2C; 10 µM, read-out: % Inhibition of Binding at 10 µM D-473) was 61% and the Ki (Alpha2C; secondary assay, read-out: Ki for D-473) was > 10000 nM. It also gave an inhibition at 10 µM (H3) of -14.7%, an inhibition at 10 µM (µ-Opioid) of 20.5% and an inhibition at 10 µM (M1) of 15%. For the same molecule, the inhibition at 10 µM (M2) was -9.5%, the “Reductions in dialysate DOPAC” value ([1]; Figure 8, region not specified) was “up to 35%” and the “Change in the level of 5-HIAA” value ([1]; region not specified (mPFC and DLS studied)) was “did not observe any change”. The “Effect on HVA” value ([1]; mPFC) was “lack of effect”, the “Increase of 5-HT” value ([1]; mPFC) was > 3 fold and the “Increase of DA” value ([1]; mPFC) was 4 fold. For the same molecule, the “Increase of NE” value ([1]; mPFC) was > 5 fold, the “Reduction of DOPAC, maximal” value ([1]; mPFC) was 35–40% and the “Extracellular 5-HT at the end of two hours, percent baseline” value ([1]; mPFC, baseline 100%) was 150%. For the same molecule, the “Extracellular 5HT, maximal, percent baseline” value ([1]; mPFC, baseline 100%) was 339%, the “Extracellular DA at the end of two hours, percent baseline” value ([1]; mPFC, baseline 100%) was 122% and the “Extracellular DA, maximal, percent baseline” value ([1]; mPFC, baseline 100%) was 394%. For the same molecule, the “Extracellular NE at the end of two hours, percent baseline” value ([1]; mPFC, baseline 100%) was 173%, the “Extracellular NE, maximal, percent baseline” value ([1]; mPFC, baseline 100%) was 547% and the “Elevation of 5-HT over the basal level” value [2] was > 4 fold. The “Increase in DA” value [2] was 2 fold, the “Increase in NE” value [2] was 2 fold and the “Reduction of DOPAC, maximal” value [2] was 35–40%. For the same molecule, the “Reduction of HVA, maximal” value [2] was 20%, the “Extracellular 5-HT at the end of two hours, percent baseline” value ([2]; baseline 100%) was 215% and the “Extracellular 5-HT, maximal, percent baseline” value ([2]; baseline 100%) was 403%. For the same molecule, the “Extracellular DA at the end of two hours, percent baseline” value ([2]; baseline 100%) was 129%, the “Extracellular DA, maximal, percent baseline” value ([2]; baseline 100%) was 274% and the “Extracellular NE at the end of two hours, percent baseline” value ([2]; baseline 100%) was 142%. The “Extracellular NE, maximal, percent baseline” value ([2]; baseline 100%) was 238%, the Ki (hNET; NET uptake, Ki, nM [3H]DA, HEK293 cells expressing hNET, average±S.E.M., 3 to 10 determinations) was 39 nM and 39.7 nM and the “Activity at NET relative to DAT” value (hNET; hNET vs hDAT uptake inhibition) was “roughly two fold more potent”. For the same molecule, the Ki (hSERT) was 9.18 ± 1.69 nM and the “Potency at SERT relative to Fluoxetine” value (hSERT; hSERT uptake inhibition) was “almost one and a half fold greater”.
